Test results taken from US11958812B2, “3, 5-disubstituted pyridine and 3, 5-disubstituted pyridazine derivatives and pharmaceutical use of same” (MITSUBISHI TANABE PHARMA CORPORATION, priority 2018, dated 2024).

Tests used:
human recombinant ATX = human recombinant ATX (Homo sapiens, UniProt Q13822); test: Enzyme inhibition test (choline release from LPC, Amplex UltraRed fluorescence); format: biochemical; conditions: 200 μM LPC substrate, 1 hr at room temperature, read-out: Experimental Example 1 human ATX IC50
Experimental: [Enzyme Inhibition Test Method]
A mixture (10 μL) of substrate and a set of choline quantification reagents (200 μM LPC (1-Oleoyl-sn-glycero-3-phosphocholine Sigma #L1881), 25 μM Amplex UltraRed reagent (Invitrogen), 0.1 U/mL Peroxidase (TOYOBO), 1 U/mL Choline oxidase (TOYOBO)), prepared with assay buffer (50 mM Tris (pH 8.0), 140 mM NaCl, 5 mM KCl, 1 mM CaCl2, 1 mM MgCl2, 0.1% BSA (Albumin from bovine serum, SIGMA), 0.0025% Triton X-100), enzyme (0.4 ng/μL human recombinant ATX) (10 μL), compound-containing solution (100 nL) were dispensed to a 384-well plate, incubated at room temperature for 1 hr and the fluorescence (Ex. 525 nm/Em. 598 nm) was measured. As the standard, choline chloride was used. With a blank free of enzyme was taken as inhibitory rate 100%, and a control free of inhibitor as inhibitory rate 0%, the inhibitory rate was calculated, and IC50 value was calculated from the inhibitory activity percentage at each concentration.

ATX activity in plasma = biological target: T1, ATX activity in plasma (Rattus norvegicus, UniProt Q64610); test: Measurement of ATX activity in plasma (ex vivo), rat single administration test; design: species or system male Wistar rat
T1 construct: from tissue; host or cells: plasma of male Wistar rats after oral dosing
Experimental: [Measurement of ATX Activity in Plasma (Ex Vivo)]
A compound administration solution prepared by wet pulverization in a mixer mill (type: MM400) for 10 min and adjusting to a given concentration with 0.5% aqueous carboxymethylcellulose solution was orally administered to male Wistar rat (5-week-old when used) at 5 mL/kg. Blood samples were collected from the cervical vein over time at 8 to 24 hr after administration. The blood was heparin-treated using a micro blood collection tube Capiject (CJ-AL, TERUMO CORPORATION), and the plasma was separated by centrifugation (4° C., 12,000 rpm, for 2 min), and preserved at −80° C. The rats after blood sampling were euthanized by exsanguination from the caudal vena cava under isoflurane inhalation anesthesia. The measurement of ATX activity in plasma was evaluated using the concentration of choline in the plasma, which was liberated from lysophosphatidylcholine (substrate of ATX) by the lysophospholipase D activity of ATX, as an index. An equal amount of 2× assay buffer (200 mM Tris-HCl pH9.0, 10 mM MgCl2, 1 M NaCl, 0.1% Triton X-100) is added to plasma (12 μL) and reacted at 37° C. for 6 hr. The reaction mixture (10 μL) after reaction for 6 hr and 45 μL of reagent R^1 solution (100 mM Tris-HCl pH 8.0, 0.5 mM TOOS, 10 U/mL peroxidase, 0.01% Triton X-100) were added and blended and absorbance at 550-700 nm was measured and used as a prevalue. As the standard, choline chloride was used. 1 mM choline chloride was diluted with 2× assay buffer up to 7 steps in 2-fold serial dilution, R^1 solution was treated similarly and the absorbance was measured. Furthermore, 15 μL of reagent R^2 solution (100 mM Tris-HCl pH 8.0, 1 mM 4-aminoantipyrine, 10 U/mL choline oxidase, 0.01% Triton X-100) was added, and the mixture was reacted at room temperature for 10 min, and absorbance at 550-700 nm was measured. The choline concentration per reaction time was calculated from the difference between the absorbance after R^2 solution addition and prevalue measured before R^2 addition and used as ATX activity value. inhibitory activity (%)=100×{1−[choline concentration (μM) of test substance administration group/choline concentration (μM) of solvent control group]} <calculating formula>

SMILES	IC50 (human recombinant ATX)	Experimental Example 2 Rat single administration test (inhibitory activity (%) 8 hr after 1 mg/kg oral administration) (ATX activity in plasma)
O=C(O)CC[C@H]1CN(c2cncc(OC[C@H]3CC[C@H](C(F)(F)F)CC3)c2)CCO1 [Example 16, 3-[(2S)-4-(5-{[trans-4-(trifluoromethyl)cyclohexyl]methoxy}pyridin-3-yl)morpholin-2-yl]propanoic Acid]	13 nM	89%
COc1ccc(-c2cnnc(OCc3ccc(OC(F)(F)F)cc3)c2)nc1[C@H]1C[C@@H]1C(=O)O [Example 25]	1 nM	91%
COc1ccc(-c2cncc(OCc3ccc(OC(F)(F)F)cc3)c2)nc1[C@H]1C[C@@H]1C(=O)O [Example 26]	5 nM	82%
COc1ccc(-c2cncc(OCc3ccc(C(F)(F)F)cc3)c2)nc1[C@H]1C[C@@H]1C(=O)O [Example 29]	3 nM	80%
COc1ccc(-c2cnnc(OCc3ccc(OC(F)(F)F)cc3)c2)cc1C1CC1C(=O)O (centres unmarked) [Example 31]	4 nM	90%
O=C(O)c1ccc2c(c1)CCN2c1cncc(OCC2CCN(CC(F)(F)F)CC2)c1 [Example 39]	7 nM	84%
O=C(O)c1ccc(C2CN(c3cncc(OC[C@H]4CC[C@H](C(F)(F)F)CC4)c3)CCO2)cc1 (some centres unmarked) [Example 45]	7 nM	81%
COc1cc(C2CN(c3cncc(OC[C@H]4CC[C@H](C(F)(F)F)CC4)c3)CCO2)ccc1C(=O)O (some centres unmarked) [Example 46]	2 nM	74%

Further lines, results first:

IC50 (human recombinant ATX)	Experimental Example 2 Rat single administration test (inhibitory activity (%) 8 hr after 1 mg/kg oral administration) (ATX activity in plasma)	SMILES
3 nM	83%	O=C(O)/C=C/C[C@@H]1COCCN1c1cncc(OCc2ccc(OC(F)(F)F)cc2)c1 [Example 22-1, (2E)-4-[(3R)-4-(5-{[4-(trifluoromethoxy)benzyl]oxy}pyridin-3-yl)morpholin-3-yl]-2-butenoic Acid]
11 nM	83%	O=C(O)CCCC1CCCN1c1cncc(OCc2ccc(OC(F)(F)F)cc2)c1 (centres unmarked) [Example 23, 4-[1-(5-{[4-(trifluoromethoxy)benzyl]oxy}pyridin-3-yl)pyrrolidin-2-yl]butanoic Acid]
19 nM	89%	O=C(O)CC[C@H]1CN(c2cncc(OCc3ccc(OC(F)(F)F)cc3F)c2)CCO1 [Example 82]
8 nM	89%	Cc1cc(OC(F)(F)F)ccc1COc1cncc(N2CCO[C@@H](CCC(=O)O)C2)c1 [Example 83]
21 nM	89%	O=C(O)CC[C@H]1CN(c2cncc(OCc3ccc(OC(F)(F)F)c(F)c3)c2)CCO1 [Example 84]
16 nM	95%	C[C@@H]1CN(c2cncc(OCc3ccc(OC(F)(F)F)cc3)c2)C[C@H](CCC(=O)O)O1 [Example 87]
57 nM	73%	O=C(O)CC1CCCN(c2cncc(OCc3ccc(OC(F)(F)F)cc3)c2)C1 (centres unmarked) [Example 92]
39 nM	70%	O=C(O)CCC1CN(c2cncc(OCc3ccc(OC(F)(F)F)cc3)c2)CCN1CC(F)(F)F (centres unmarked) [Example 93]
